Experimental data published in patent publication US20250000818A1, “NEW SYNERGISTIC COMBINATIONS BASED ON FENM AND AN ACETYLCHOLINESTERASE INHIBITOR” (REST Therapeutics, priority 2021, published 2025).

How the values were obtained:
[1] = tested on: mice intoxicated with Aβ25-35 oligomers; test: Y-labyrinth spontaneous alternation test (YMT), short-term spatial working memory, Aβ25-35 oligomer ICV intoxication model; format: in vivo, male Swiss OF-1 mice
Description: (§1) In vivo experiments were conducted on male Swiss OF-1 mice (January, St Berthevin, France) aged 7 to 9 weeks with a mass of 32±2 g. The animals are housed in groups of 8 to 10 individuals in plastic cages with free access to food and drink, in a controlled environment (12:00 day/night cycle, the light is switched on at 7:00 a.m. and the behavioral experiments take place between 9:00 a.m. and 5:00 p.m.), under controlled atmosphere and sound environment.
The stock solutions of the compounds were obtained by dissolution in NaCl buffer (0.9%, vehicle) at a concentration of 2 mg/mL which corresponds to a dose of 5 mg/Kg. These stock solutions are stored at 4° C. for 2 weeks maximum.
(§2) The vehicle solution or the control peptide are subjected to the same treatment before administration.
The compounds are IP administered in a volume of 100 μL per 20 g of body mass. […] The doses of compounds mentioned in the experimental part correspond to the doses of salts of the used compounds and not to the mass equivalent of the compound itself. For each compound, the administered doses are 0.01, 0.03, 0.1, 0.3 and 1 mg/kg. In the case of the combination, the co-administered doses of donepezil and FENM were 0.03 and 0.01 mg/kg, respectively.
(§3) The ability of the compounds and their combination to decrease the cognitive symptoms of neurodegeneration induced by the Aβ25-35 oligomers is tested. For this purpose, the administration of the test compounds takes place on the same day as the injection of the Aβ25-35 oligomers and continues on a daily basis until day 7 after the injection of the Aβ25-35 oligomers; the mice are then subjected to YMT tests, or PAT on day 8 after the injection of the Aβ25-35 oligomers.
The spontaneous alternation test is used to study the (very short-term) spatial working memory in rodents. The labyrinth is made of opaque gray polyvinyl chloride (PVC). Each arm is 40 cm long, 13 cm high and 3 cm wide at its base and 10 cm at its top. The arms converge towards one another, with an equal angle between the different arms. In brief, each mouse is placed at the end of an arm and left free to move for an 8-minute session. The mouse entries in each of the arms, including the arm at which it was dropped, are recorded. An alternation is defined as the successive entry of the animal into three different arms.
The animal data showing extreme behaviors (percentage of alternation <20% or >90%) are not taken into account in the calculations. The attrition rate is usually 5%. Under normal conditions, a mouse will spontaneously alternate the explorations of each arm. A mouse with impaired memory and/or orientation capabilities will have its alternation percentage decreased.
Data were analyzed using unidirectional variance analyses (ANOVA, F-value), followed by a Dunnett test or non-parametric Kruskal-Wallis ANOVA (H-value) followed by a Dunn comparison test. The statistical significance levels are p<0.05, p<0.01 and p<0.001.

[2] = tested on: mice intoxicated with Aβ25-35 oligomers; test: Passive avoidance test (PAT), long-term contextual memory, Aβ25-35 oligomer ICV intoxication model; format: in vivo, male Swiss OF-1 mice
Description: as §1
FENM was obtained from M2i Life Sciences (Saint-Cloud, France). The stock solutions of the compounds were obtained by dissolution in NaCl buffer (0.9%, vehicle) at a concentration of 2 mg/mL which corresponds to a dose of 5 mg/Kg. These stock solutions are stored at 4° C. for 2 weeks maximum.
as §2
The compounds are IP administered in a volume of 100 μL per 20 g of body mass. […] The doses of compounds mentioned in the experimental part correspond to the doses of salts of the used compounds and not to the mass equivalent of the compound itself. For each compound, the administered doses are 0.01, 0.03, 0.1, 0.3 and 1 mg/kg.
as §3
This test measures the long-term non-space (contextual) memory. The device used for this test is a box with two compartments (15×20×15 cm high), one illuminated with white PVC walls and the other in the dark with black PVC walls and a mesh floor. A guillotine door separates the compartments. A 60 W lamp is positioned 40 cm above the box and illuminates the white compartment. Electrical shocks (0.3 mA for 3 s) may be applied to the grid floor via a generator (Lafayette Instruments, Lafayette, USA). The test consists of a learning session and a test session. The guillotine door is closed during the training session. Each mouse is placed in the white compartment. After 5 seconds, the door is raised. When the mouse enters the dark compartment so that its four legs are in contact with the mesh, the door closes and electrical discharges are applied for 3 seconds. The time taken by the mouse to enter the dark compartment (STL-Tg) and the level of shock sensitivity (0=no sign; 1=surges; surge and vocalizes) are recorded. The test session is performed 24 hours after the learning session. Each mouse is placed back in the illuminated white compartment. After 5 seconds, the door is raised, the latency time (STL-R), i.e. the time it takes the mouse to go into the dark compartment, is measured. The maximum time is 300 seconds.

NC12CC3CC(C1)CC(CCF)(C3)C2.OBr [FENM, 3 (2-Fluoroethyl)tricyclo[3.3.1.13,7]decan-1-amine bromohydrate]
effect on percentage of alternation of intoxicated mice ([1]; 0.01 mg/kg): at the limit of statistical significance
PP (%) percentage protection ([1]; 0.01 mg/kg IP daily to day 7, 100% = non-intoxicated vehicle, 0% = Aβ25-35/vehicle): 38.5 ± 31.9%
effect on percentage of alternation of intoxicated mice ([1]; 0.03 mg/kg): significantly improves the percentage of alternation
PP (%) percentage protection ([1]; 0.03 mg/kg IP): 58.4 ± 20.8%
PP (%) percentage protection ([1]; 0.1 mg/kg IP): 71.2 ± 33.3 %
PP (%) percentage protection ([2]; 0.01 mg/kg IP): 1.4 ± 18.3%
PP (%) percentage protection ([2]; 0.03 mg/kg IP): −12.2 ± 16.8 %
PP (%) percentage protection ([2]; 0.1 mg/kg IP): 27.8 ± 24.8%
PP (%) percentage protection ([2]; 0.3 mg/kg IP): 52.9 ± 14.2 %
effect on passive avoidance performance (latency) of intoxicated mice ([2]; 0.3 mg/kg or 1 mg/kg IP): performances that are not significantly different from the control, non-intoxicated, untreated mice
effect on passive avoidance performance (latency) of intoxicated mice ([2]; doses lower than 0.3 mg/kg): does not protect mice from mnesic disorders
